The molecules below were run on N27 rat dopaminergic neural cells (assay: MTT assay in N27 rat dopaminergic neural cells: inhibition of RSL3-induced cell death (ferroptosis)). Conditions: Rattus norvegicus, N27, 24 h, ferroptosis induced by 0.5 μM RSL3, 24 hours, viability by MTT.
Type: cell-based
Procedure: MTT Assay in N27 Rat Dopaminergic Neural Cells
N27 rat dopaminergic neural cells (Millipore, SCC048) were cultured in RPMI-1640 media (Wisent, 350-000) supplemented with 1×GlutaMAX (Gibco, 35050-061), 10% FBS (embryonic stem cell qualified; Wisent, 920-040), and 1× Penicillin-Streptomycin (Wisent, 450-201). Cells were grown in humidified tissue culture incubator at 37° C. with 5% CO2, for up to 10 passages. To evaluate the ability of test compounds to inhibit RSL3-induced cell death, N27 cells were seeded in clear 96-well tissue culture plates (Sarstedt, 83.3924) at a density of 15,000 cells/well. On the next day, the medium was changed to fresh complete RPMI-1640. Eight-point dilution series of test compounds were added to the cells. Then, ferroptosis was induced by addition of 0.5 μM RSL3 (vehicle-treated cells served as control). Ferrostatin-1 (Fer-1) was included in each assay as control inhibitor of ferroptosis. Plates were incubated for 24 hours at 37° C. in a tissue culture incubator, then cell viability was determined by MTT assay. Briefly, Thiazolyl Blue Tetrazolium Bromide [3-(4,5-dimethylthiazol-2-yl)-2,5-diphenyltetrazolium bromide or “MTT” ] (Sigma) stock solution (5 mg/mL in PBS, sterilized by filtration) was diluted 1:1 with complete growth medium, and added on the cells to a final concentration of 0.5 mg/mL. Cells were incubated with MTT for 4 hours at 37° C., protected from light, in a humidified, 5% CO2 atmosphere. Medium was then completely removed from the wells by gentle aspiration and converted MTT formazan crystals were dissolved in 150 μL of DMSO. Absorbance of converted dye was measured at 595 nm with background subtraction at 690 nm using the BioTek Cytation5 Microplate Reader. Blank reading (absorbance from wells containing media and vehicle only, no cells) was removed from all sample wells. Viability was calculated as a percentage of control cells (vehicle-treated cells were set as 100% viability). Dose-response curves were drawn and IC50 values were calculated using GraphPad Prism software, version 7.
`Cc1ccc(-c2ccc(NC3COC3)c(NC3CCCC3)n2)cc1` [Compound H-81, N^2-cyclopentyl-N^3-(oxetan-3-yl)-6-(p-tolyl)pyridine-2,3-diamine] was tested, and the IC50 was 5 nM. Work on `CCC(C)Nc1ccc(-c2cncnc2)nc1NC1CCCC1` (stereo not drawn) [Compound H-80, N^2-cyclopentyl-6-pyrimidin-5-yl-N^3-sec-butyl-pyridine-2,3-diamine] yielded an IC50 of 7 nM. Molecule `CCCCC(=O)c1cc2c(c(N3CCCC3=O)c1)NCCC2` [Compound Q-979, 1-(6-pentanoyl-1,2,3,4-tetrahydroquinolin-8-yl)pyrrolidin-2-one] has an IC50 of 1150 nM. With `CCCCC(OC)c1cc2c(c(Nc3ccccn3)c1)NCCC2` (stereo not drawn) [Compound B-397, 6-(1-methoxypentyl)-N-(2-pyridyl)-1,2,3,4-tetrahydroquinolin-8-amine] the IC50 was 70 nM. For `CCCCC(O)c1cc2c(c(Nc3ccccn3)c1)NCCC2` (stereo not drawn) [Compound B-250, 1-[8-(2-pyridylamino)-1,2,3,4-tetrahydroquinolin-6-yl]pentan-1-ol], the IC50 was 139 nM. `c1nc2c(c(NC3CCCC3)n1)NCCC2` [Compound C-84, N-cyclopentyl-5,6,7,8-tetrahydropyrido[3,2-d]pyrimidin-4-amine] showed an IC50 of 646 nM. In the case of `OC(c1ccccc1)c1nc2c(c(NC3CCCC3)n1)NCCC2` (stereo not drawn) [Compound A-10, [4-(cyclopentylamino)-5,6,7,8-tetrahydropyrido[3,2-d]pyrimidin-2-yl]-phenyl-methanol], the IC50 was 71 nM. With `CC1=Nc2cc(C#N)ccc2NC1(C)C` [Compound Q-912, 2,2,3-trimethyl-1H-quinoxaline-6-carbonitrile] the IC50 was greater than 3000 nM. Molecule `C1CNc2c(nc(C3CCCC3)nc2NC2CCCC2)C1` [Compound B-456, N,2-Dicyclopentyl-5,6,7,8-tetrahydropyrido[3,2-d]pyrimidin-4-amine] has an IC50 of 153 nM. `CCCCC(=O)c1cc2c(c(NS(=O)(=O)CC(C)C)c1)NCCC2` [Compound B-251, 2-methyl-N-(6-pentanoyl-1,2,3,4-tetrahydroquinolin-8-yl)propane-1-sulfonamide] showed an IC50 of 9300 nM. `CCCC#Cc1nc2c(c(NC3CCCC3)n1)NCCC2` [Compound A-27, N-cyclopentyl-2-pent-1-ynyl-5,6,7,8-tetrahydropyrido[3,2-d]pyrimidin-4-amine] was tested, and the IC50 was 34 nM. In the case of `CCCCC(=O)c1cc(F)c2c(c1)CCCN2` [Compound B-132], the IC50 was greater than 3000 nM. `CC(C)(C)Nc1nc(OCC(F)(F)F)cc2c1NCC(C(F)(F)F)C2` (stereo not drawn) [Compound S-101, N-tert-butyl-6-(2,2,2-trifluoroethoxy)-3-(trifluoromethyl)-1,2,3,4-tetrahydro-1,7-naphthyridin-8-amine] gave an IC50 of 1260 nM. Work on `CCC/C=C/c1nc(NC2CCCC2)c2c(n1)OCCN2` [Compound B-710, N-cyclopentyl-2-[(E)-pent-1-enyl]-6,7-dihydro-5H-pyrimido[4,5-b][1,4]oxazin-4-amine] yielded an IC50 of 22 nM. `CCCCC(=O)c1nc2c(c(NC3CCCC3)n1)NCCC2` [Compound C-82, 1-[4-(cyclopentylamino)-5,6,7,8-tetrahydropyrido[3,2-d]pyrimidin-2-yl]pentan-1-one] gave an IC50 of 84 nM. In the case of `CCC(C)Nc1ccc(-c2cccnc2)nc1NC1CCCC1` (stereo not drawn) [Compound H-74, N^2-cyclopentyl-6-(3-pyridyl)-N^3-sec-butyl-pyridine-2,3-diamine], the IC50 was 5 nM. Molecule `CCC/C=C/c1nc2c(c(NC3CCCC3)n1)NCCC2` [Compound B-388, N-cyclopentyl-2-[(E)-pent-1-enyl]-5,6,7,8-tetrahydropyrido [3,2-d]pyrimidin-4-amine] has an IC50 of 40 nM. With `CC1(Nc2nc(-c3ccc(F)cc3)ccc2NC2CCC2)CCOC1` (stereo not drawn) [Compound P-54, N^3-cyclobutyl-6-(4-fluorophenyl)-N^2-(3-methyltetrahydrofuran-3-yl)pyridine-2,3-diamine] the IC50 was 3 nM. For `CCC(C)Nc1ccc(-c2ccncc2)nc1NC1CCCC1` (stereo not drawn) [Compound H-76, N^2-cyclopentyl-6-(4-pyridyl)-N^3-sec-butyl-pyridine-2,3-diamine], the IC50 was 6 nM. `CCCCC(=O)c1nc2c(c(N3CCCC3)n1)NCCC2` [Compound A-18, 1-(4-pyrrolidin-1-yl-5,6,7,8-tetrahydropyrido[3,2-d]pyrimidin-2-yl)pentan-1-one] gave an IC50 of 217 nM. Molecule `CCCCC(=O)c1cc2c(c(NC(C)(C)C)n1)NCC(C(F)(F)F)C2` (stereo not drawn) [Compound R-830] has an IC50 of 36 nM. `Clc1nc2c(c(NC3CCCC3)n1)NCCC2` [Compound J-84] gave an IC50 of 273 nM. In the case of `COCCOc1nc2c(c(NC3CCCC3)n1)NCCC2` [Compound B-495, N-cyclopentyl-2-(2-methoxyethoxy)-5,6,7,8-tetrahydropyrido[3,2-d]pyrimidin-4-amine], the IC50 was 160 nM. With `CCCCCc1nc(NC2CCCC2)c2c(n1)S(=O)(=O)CCN2` [Compound B-602, N-cyclopentyl-8,8-dioxo-2-pentyl-6,7-dihydro-5H-pyrimido[4,5-b][1,4]thiazin-4-amine] the IC50 was no less than 3000 nM. In the case of `c1ncc(-c2ncc(NC3COC3)c(NC3CCCC3)n2)cn1` [Compound F-82, N^4-cyclopentyl-N^5-(oxetan-3-yl)-2-pyrimidin-5-yl-pyrimidine-4,5-diamine], the IC50 was greater than 625 nM. For `CCCCC(=O)c1cc2c(c(NC3CCCC3)c1)OCCC2` [Compound B-035, 1-[8-(cyclopentylamino)-3,4-dihydro-2H-1-benzopyran-6-yl]pentan-1-one], the IC50 was greater than 3000 nM. `CCCCC(=O)c1cc2c(c(Nc3ccccn3)c1)NCCC2` [Compound B-249, 1-{8-[(pyridin-2-yl)amino]-1,2,3,4-tetrahydroquinolin-6-yl}pentan-1-one] was tested, and the IC50 was 343 nM. For `CC1(Nc2nc(-c3ccc(F)cc3)ccc2NC2CCOC2)CCOC1` (stereo not drawn) [Compound M-23, 6-(4-fluorophenyl)-N^2-(3-methyltetrahydrofuran-3-yl)-N^3-tetrahydrofuran-3-yl-pyridine-2,3-diamine], the IC50 was 3 to 6 nM. In the case of `CCCCN(C)c1nc2c(c(NC3CCCC3)n1)NCCC2` [Compound B-434, N2-Butyl-N4-cyclopentyl-N2-methyl-5,6,7,8-tetrahydropyrido[3,2-d]pyrimidine-2,4-diamine], the IC50 was 397 nM. `CCC(C)Nc1ccc(-c2ccncc2)nc1NC(C)(C)C` (stereo not drawn) [Compound P-22] was tested, and the IC50 was 1 nM. `CCC(C)Nc1ccc(C(F)(F)F)nc1NC1CCCC1` (stereo not drawn) [Compound K-65, N^2-cyclopentyl-N^3-sec-butyl-6-(trifluoromethyl)pyridine-2,3-diamine] was tested, and the IC50 was 45 nM. Work on `Cc1ccc(-c2ccc(NC(C)(C)C)c(NC3CCCC3)n2)cc1` [Compound A-98, N^3-tert-butyl-N^2-cyclopentyl-6-(p-tolyl)pyridine-2,3-diamine] yielded an IC50 of 7 nM. For `CCCCOc1nc2c(c(NC3CCCC3)n1)NCCC2` [Compound B-323, 2-Butoxy-N-cyclopentyl-5,6,7,8-tetrahydropyrido[3,2-d]pyrimidin-4-amine], the IC50 was 43 nM. In the case of `CCCCCc1ccc(NC(C)CC)c(NC2CCCC2)n1` (stereo not drawn) [Compound H-72, N^2-cyclopentyl-6-pentyl-N^3-sec-butyl-pyridine-2,3-diamine], the IC50 was 6 nM. In the case of `CC1(Nc2nc(-c3cccnc3)ccc2NC2CCOC2)CCOC1` [Compound L-42, N^2-(3-methyltetrahydrofuran-3-yl)-6-(3-pyridyl)-N^3-tetrahydrofuran-3-yl-pyridine-2,3-diamine], the IC50 was 285 nM. With `CCCC(=O)c1ccc(NC(C)CC)c(NC2CCCC2)n1` [Compound L-34, 1-[6-(cyclopentylamino)-5-(sec-butylamino)-2-pyridyl]butan-1-one] the IC50 was 21 nM. `CCC(C)Nc1ccc(-c2ccc(OC)cc2)nc1NC1CCCC1` (stereo not drawn) [Compound H-86, N^2-cyclopentyl-6-(4-methoxyphenyl)-N^3-sec-butyl-pyridine-2,3-diamine] showed an IC50 of 8 nM. `CCOC(=O)c1cc2c(c(NC3CCCC3)c1)NC(C)(C)CC2` [Compound B-273, Ethyl 8-cyclopentylamino-2,2-dimethyl-3,4-dihydro-1H-quinoline-6-carboxylate] was tested, and the IC50 was 1040 nM.

Same assay, conditions: Rattus norvegicus, N27, 24 h, ferroptosis induced by 0.5 μM RSL3, 24 hours, viability by MTT, cell unit uM
`CCCCC(O)c1nc2c(c(Nc3ccccn3)n1)NCCC2` (stereo not drawn) [Compound G-63, 1-[4-(2-pyridylamino)-5,6,7,8-tetrahydropyrido[3,2-d]pyrimidin-2-yl]pentan-1-ol] gave an IC50 greater than 10000 nM. For `CNC(=O)c1nc(-c2ccc(C)cc2)nc2c1NC(C)(C)N2C1CCCC1` [Compound K-34], the IC50 was greater than 10000 nM. For `CCCCC(=O)c1nc2c(c(Nc3ccccn3)n1)NCCC2` [Compound G-65, 1-[4-(2-pyridylamino)-5,6,7,8-tetrahydropyrido[3,2-d]pyrimidin-2-yl]pentan-1-one], the IC50 was greater than 10000 nM.

Same assay, conditions: Rattus norvegicus, ferroptosis induced by 0.5 μM RSL3, 24 hours, viability by MTT
`CCCCCc1nc(NC2CCCC2)c2c(n1)OCCN2` [Compound B-711, N-cyclopentyl-2-pentyl-5H,6H,7H-pyrimido[4,5-b][1,4]oxazin-4-amine] gave an IC50 of 41 nM.

From patent US20220144826A1, “Heteroaromatic and Heterobicyclic Aromatic Derivatives for the Treatment of Ferroptosis-Related Disorders” (COLLABORATIVE MEDICINAL DEVELOPMENT, LLC, priority 2019, published 2022)
